Source: patent publication US7842671B1, “Peptidomimetic inhibitors of STAT activity and uses thereof” (University of South Florida, priority 2003, dated 2010)
Square brackets hold non-standard residues; d marks the D form. Ends that are not written are not given here. pY = N[C@@H](Cc1ccc(OP(=O)(O)O)cc1)C(=O)O

What was measured:
NIH3T3/v-Src [1] = assay type: cell-based, mouse; conditions: 1 mM, four days
Procedure: (§1) Cell proliferation, soft-agar growth and Apo-BrdU labeling studies. Proliferating fibroblasts and human tumor cells were counted by phase-contrast microscopy for viable cells (using tyrpan blue exclusion). Colony formation assays in six-well dishes and quantification of colonies by iodonitrotetrazolium violet have been previously described (Turkson, J. et al. (1999)). Treatment of cells with inhibitors was initiated 1 day after seeding cells by adding 75 μl of medium with or without inhibitor, and repeated every two to three days. Apoptosis was measured by Apo-BrdU labeling and following the supplier's (PharMingen; San Diego, Calif.) instructions.
(§2) Stat3 has an essential role in cell proliferation, and constitutively-active Stat3 is required for growth of transformed and tumor cells that harbor aberrant Stat3 signaling. Studies were performed to determine the effects of the peptidomimetic-mediated inhibition of Stat3 on cell proliferation using trypan blue exclusion for viable cell counts.

MDA-MB-231 = assay type: cell-based, human; conditions: 1 mM, MDA-MB-231, four days
Procedure: as §1, §2

MDA-MB-435 = assay type: cell-based, human; conditions: 1 mM, MDA-MB-435, four days
Procedure: as §1, §2

NIH3T3/v-Src [2] = assay: Apo-BrdU labeling and flow cytometry for apoptotic cells; assay type: cell-based, mouse; conditions: 48 h
Procedure: as §1
(§3) Because one of the functions of Stat3 is to protect transformed or tumor cells from apoptosis (Catlett-Falcone, R. et al. (1999b); Epling-Burnette, P. K. et al. (2001); Grandis, J. R. et al. (2000); Bowman, T. et al. (2000b); Bromberg, J. F. et al. (1999)), the ability of peptidomimetics of the invention (and PY*LKTK-MTS for comparison) (SEQ ID NO. 1) to induce apoptosis in Stat3-dependent transformed fibroblasts was evaluated. Viral Src-transformed NIH3T3/v-Src fibroblasts were treated with or without compounds for 48 h. Treated cells were then labeled with Apo-BrdU (PharMingen; San Diego, Calif.) for detection of DNA breaks.

NIH3T3 = assay: as above; assay type: cell-based, mouse; conditions: NIH3T3, 1 mM, 48 h, flow cytometry
Procedure: as §1, §3

Stat3 = Stat3 (Mus musculus, UniProt P42227); parameters: nuclear extracts prepared from v-Src-transformed NIH3T3/v-Src; endogenous in cells; host or cells: NIH3T3/v-Src; conditions: Turkson J. et al. (2001); cited from earlier work
Sequence of Stat3 (P42227 whole entry): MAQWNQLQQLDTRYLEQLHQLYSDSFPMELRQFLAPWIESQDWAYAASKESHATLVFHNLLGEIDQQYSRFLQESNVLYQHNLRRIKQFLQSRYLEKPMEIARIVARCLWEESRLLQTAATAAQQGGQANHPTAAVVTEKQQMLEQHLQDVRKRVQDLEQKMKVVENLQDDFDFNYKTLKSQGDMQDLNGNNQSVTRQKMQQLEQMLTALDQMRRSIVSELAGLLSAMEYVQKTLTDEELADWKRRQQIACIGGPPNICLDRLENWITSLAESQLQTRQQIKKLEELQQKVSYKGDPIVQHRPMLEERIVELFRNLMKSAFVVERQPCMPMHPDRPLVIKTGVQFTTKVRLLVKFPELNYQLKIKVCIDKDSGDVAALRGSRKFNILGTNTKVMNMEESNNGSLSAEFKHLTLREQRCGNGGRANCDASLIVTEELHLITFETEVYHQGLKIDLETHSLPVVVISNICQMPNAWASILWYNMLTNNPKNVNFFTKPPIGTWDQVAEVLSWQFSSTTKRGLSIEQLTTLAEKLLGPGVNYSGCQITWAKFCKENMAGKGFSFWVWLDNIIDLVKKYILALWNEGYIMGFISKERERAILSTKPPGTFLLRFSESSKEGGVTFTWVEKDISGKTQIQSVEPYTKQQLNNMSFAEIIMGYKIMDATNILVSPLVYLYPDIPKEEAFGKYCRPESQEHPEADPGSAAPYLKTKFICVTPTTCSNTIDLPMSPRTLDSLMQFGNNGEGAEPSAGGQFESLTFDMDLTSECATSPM

**Q.** With “PY*LKTK-AAVLLPVLLAAP (P[pY]LKTKAAVLLPVLLAAP) [PY*LKTK-MTS]” as the substance, how does the cell proliferation (NIH3T3/v-Src [1]) read?
**A.** Its cell proliferation is “significantly suppresses proliferation”.

**Q.** And the cell proliferation (MDA-MB-231)?
**A.** The cell proliferation was “significantly suppresses proliferation”.

**Q.** What about the cell proliferation (MDA-MB-435) of the same substance?
**A.** Its cell proliferation is “significantly suppresses proliferation”.

**Q.** And the “percent of apoptotic cells” value (NIH3T3/v-Src [2]; NIH3T3/v-Src, 1 mM, Apo-BrdU, flow cytometry)?
**A.** Its value is 27.6%.

**Q.** What about the “incorporated BrdUTP compared to controls (in words)” value (NIH3T3/v-Src [2]; Src-transformed fibroblasts) of the same substance?
**A.** Its value is “dramatic increases in incorporated BrdUTP”.

**Q.** And the “percent of apoptotic cells” value (NIH3T3)?
**A.** Its value is 3.7%.

**Q.** And the “constitutive Stat3 activation in Src-transformed fibroblasts” value (Stat3)?
**A.** The value was “inhibits constitutive Stat3 activation”.
